In PubChem BioAssay AID248 (DTP/NCI, 2004):
Several values for one entry are separate records, joined by “and”; a condition that tells them apart may be missing. Equal entries are not always repeated. Toxic doses and inconclusive results are not listed. Rule as the data show it: active = T/C of 150% or more; inactive = T/C below 125%.

Tested on: L1210 leukemia ip in BDF1 mice, survival T/C
Assay: NCI In Vivo Anticancer Drug Screen. Data for tumor model L1210 Leukemia (intraperitoneal) in B6D2F1 (BDF1) mice
Conditions: endpoint: mean survival time, higher = longer survival
Procedure, shortened: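 Value reflects the ratio of survival in compound-treated mice to survival in vehicle-treated controls, with both groups carrying the same transplanted tumor.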

[1] = dose: 100.0 mg/kg/injection, schedule: Q04DX002 (ip), vehicle: Klucel (hydroxypropylcellulose) (HPC)
[2] = dose: 200.0 mg/kg/injection, schedule: Q04DX002 (ip), vehicle: Klucel (hydroxypropylcellulose) (HPC)
[3] = dose: 400.0 mg/kg/injection, schedule: Q04DX002 (ip), vehicle: Klucel (hydroxypropylcellulose) (HPC)
[4] = dose: 100.0 mg/kg/injection, schedule: Q01DX001 (ip), vehicle: saline
[5] = dose: 200.0 mg/kg/injection, schedule: Q01DX001 (ip), vehicle: saline
[6] = dose: 50.0 mg/kg/injection, schedule: Q01DX001 (ip), vehicle: saline
[7] = dose: 100.0 mg/kg/injection, schedule: Q04DX003 (ip), vehicle: saline with Tween-80
[8] = dose: 200.0 mg/kg/injection, schedule: Q04DX003 (ip), vehicle: saline with Tween-80
[9] = dose: 100.0 mg/kg/injection, schedule: Q04DX003 (ip), vehicle: Klucel (hydroxypropylcellulose) (HPC)
[10] = dose: 200.0 mg/kg/injection, schedule: Q04DX003 (ip), vehicle: Klucel (hydroxypropylcellulose) (HPC)
[11] = dose: 100.0 mg/kg/injection, schedule: Q01DX009 (ip), vehicle: Klucel (hydroxypropylcellulose) (HPC)
[12] = dose: 200.0 mg/kg/injection, schedule: Q01DX009 (ip), vehicle: Klucel (hydroxypropylcellulose) (HPC)

Measured: T/C

O=c1[nH]cnc2c1ncn2CCCOc1ccccc1
inactive: [1] 91 % of control | [2] 88 % of control | [3] 88 % of control

O=C1c2ccccc2C(=O)c2c(O)c([N+](=O)[O-])cc([N+](=O)[O-])c21
inactive: [4] 98 % of control | [5] 104 % of control | dose: 400.0 mg/kg/injection, schedule: Q01DX001 (ip), vehicle: saline 100 % of control

COc1ccc(C(O)c2c(CN(C)C)c3ccccc3n2C)cc1 (centres undefined)
inactive: dose: 100.0 mg/kg/injection, schedule: Q04DX002 (ip), vehicle: other 106 % of control

Cc1ccc(/C(C#N)=C/C2CCC(N(C)C)CC2)cc1 (centres undefined)
inactive: dose: 100.0 mg/kg/injection, schedule: Q04DX002 (ip), vehicle: saline with Tween-80 87 % of control | dose: 200.0 mg/kg/injection, schedule: Q04DX002 (ip), vehicle: saline with Tween-80 93 % of control | dose: 400.0 mg/kg/injection, schedule: Q04DX002 (ip), vehicle: saline with Tween-80 87 % of control

CC(=O)c1c(C)cc(C)c(CC(=O)O)c1C
inactive: dose: 75.0 mg/kg/injection, schedule: Q01DX009 (ip), vehicle: Klucel (hydroxypropylcellulose) (HPC) 104 % of control | dose: 150.0 mg/kg/injection, schedule: Q01DX009 (ip), vehicle: Klucel (hydroxypropylcellulose) (HPC) 97 % of control | dose: 300.0 mg/kg/injection, schedule: Q01DX009 (ip), vehicle: Klucel (hydroxypropylcellulose) (HPC) 93 % of control

COc1ccc(C2(OC)Oc3cc(OC)ccc3C(=O)C2(O)OC)cc1 (centres undefined)
inactive: [6] 98 % of control | [4] 104 % of control

CCOP(=S)(NN=C1CCCC1)OCC
inactive: [4] 95 % of control | [5] 95 % of control

Cn1c(C[N+](C)(C)C)cc2ccccc21
inactive: [7] 104 % of control | [8] 96 % of control

CCC1C(=O)OCc2c1cc1n(c2=O)Cc2cc3ccccc3nc2-1 (centres undefined)
inactive: dose: 2.5 mg/kg/injection, schedule: Q01DX001 (ip), vehicle: saline 102 % of control | dose: 5.0 mg/kg/injection, schedule: Q01DX001 (ip), vehicle: saline 107 % of control | dose: 10.0 mg/kg/injection, schedule: Q01DX001 (ip), vehicle: saline 102 % of control | dose: 15.0 mg/kg/injection, schedule: Q01DX001 (ip), vehicle: saline 118 % of control

CC1=NCCC[N-]CC[N-]CCCN=C1C.[Ni+2].[O-][Cl+3]([O-])([O-])O
inactive: dose: 100.0 mg/kg/injection, schedule: Q04DX002 (ip), vehicle: saline 94 % of control | dose: 200.0 mg/kg/injection, schedule: Q04DX002 (ip), vehicle: saline 94 % of control | dose: 400.0 mg/kg/injection, schedule: Q04DX002 (ip), vehicle: saline 98 % of control

C/C(=N\NC(N)=S)c1ccccc1
inactive: dose: 5.0 mg/kg/injection, schedule: Q01DX009 (ip), vehicle: Klucel (hydroxypropylcellulose) (HPC) 97 % of control | dose: 5.0 mg/kg/injection, schedule: Q04DX003 (ip), vehicle: Klucel (hydroxypropylcellulose) (HPC) 97 % of control | dose: 10.0 mg/kg/injection, schedule: Q01DX009 (ip), vehicle: Klucel (hydroxypropylcellulose) (HPC) 110 % of control | dose: 10.0 mg/kg/injection, schedule: Q04DX003 (ip), vehicle: Klucel (hydroxypropylcellulose) (HPC) 103 % of control | dose: 20.0 mg/kg/injection, schedule: Q01DX009 (ip), vehicle: Klucel (hydroxypropylcellulose) (HPC) 105 % of control | dose: 20.0 mg/kg/injection, schedule: Q04DX003 (ip), vehicle: Klucel (hydroxypropylcellulose) (HPC) 98 % of control and 117 % of control | dose: 30.0 mg/kg/injection, schedule: Q04DX003 (ip), vehicle: Klucel (hydroxypropylcellulose) (HPC) 95 % of control | dose: 40.0 mg/kg/injection, schedule: Q04DX003 (ip), vehicle: Klucel (hydroxypropylcellulose) (HPC) 120 % of control

CCCCCCCCCCCCCCCCCCSc1ccccc1
inactive: [9] 93 % of control | [10] 93 % of control | dose: 400.0 mg/kg/injection, schedule: Q04DX003 (ip), vehicle: Klucel (hydroxypropylcellulose) (HPC) 94 % of control

O=C1N/C(=N\OCc2ccccc2)CC(NOCc2ccccc2)N1C1OC(CO)C(O)C1O (centres undefined)
inactive: dose: 100.0 mg/kg/injection, schedule: Q04DX003 (ip), vehicle: saline 92 % of control | dose: 200.0 mg/kg/injection, schedule: Q04DX003 (ip), vehicle: saline 92 % of control

ClCC1=NC2C(Cl)C(Cl)C(Cl)C(Cl)C2N1 (centres undefined)
inactive: [1] 111 % of control | [2] 100 % of control | [3] 100 % of control

S=c1nc[nH]c2c1[nH]c(=S)n2CCc1cnc[nH]1
inactive: dose: 24.0 mg/kg/injection, schedule: Q01DX009 (ip), vehicle: steriod suspending solution 98 % of control | dose: 39.0 mg/kg/injection, schedule: Q01DX009 (ip), vehicle: steriod suspending solution 100 % of control | dose: 65.0 mg/kg/injection, schedule: Q01DX009 (ip), vehicle: steriod suspending solution 102 % of control | dose: 108.0 mg/kg/injection, schedule: Q01DX009 (ip), vehicle: steriod suspending solution 88 % of control | dose: 400.0 mg/kg/injection, schedule: Q01DX001 (ip), vehicle: steriod suspending solution 94 % of control

Cc1cc(Cl)cc(C)c1OC(=O)Nc1ccc(F)cc1
inactive: [11] 96 % of control | [12] 95 % of control | dose: 400.0 mg/kg/injection, schedule: Q01DX009 (ip), vehicle: Klucel (hydroxypropylcellulose) (HPC) 107 % of control

O=C(O)c1c(O)cc(O)cc1O
inactive: [7] 95 % of control | [8] 95 % of control

CCN(CC)CCCC(C)Nc1ccnc(/C=C/c2ccc(C(F)(F)F)cc2)c1 (centres undefined)
inactive: dose: 12.5 mg/kg/injection, schedule: Q01DX001 (ip), vehicle: saline 98 % of control | dose: 20.0 mg/kg/injection, schedule: Q04DX003 (ip), vehicle: saline 95 % of control | dose: 25.0 mg/kg/injection, schedule: Q01DX001 (ip), vehicle: saline 96 % of control | dose: 40.0 mg/kg/injection, schedule: Q04DX003 (ip), vehicle: saline 95 % of control | [6] 104 % of control | dose: 80.0 mg/kg/injection, schedule: Q04DX003 (ip), vehicle: saline 93 % of control | [4] 86 % of control

Cc1cc(C(=O)O)c2c([nH]1)c(C)cc1nc3ccccc3c12
inactive: dose: 50.0 mg/kg/injection, schedule: Q01DX001 (ip), vehicle: carboxymethylcellulose (CMC) 101 % of control | dose: 100.0 mg/kg/injection, schedule: Q01DX001 (ip), vehicle: carboxymethylcellulose (CMC) 101 % of control | dose: 200.0 mg/kg/injection, schedule: Q01DX001 (ip), vehicle: carboxymethylcellulose (CMC) 108 % of control | dose: 400.0 mg/kg/injection, schedule: Q01DX001 (ip), vehicle: carboxymethylcellulose (CMC) 95 % of control

O=C(O)CCC1CCCCC1=O (centres undefined)
inactive: dose: 50.0 mg/kg/injection, schedule: Q01DX009 (ip), vehicle: Klucel (hydroxypropylcellulose) (HPC) 104 % of control | dose: 50.0 mg/kg/injection, schedule: Q04DX003 (ip), vehicle: Klucel (hydroxypropylcellulose) (HPC) 98 % of control | [11] 95 % of control | [9] 97 % of control | [12] 98 % of control | [10] 98 % of control
